Results on 5 compounds are retold here after ChEMBL document CHEMBL5465560, “Selectivity Literature for EUbOPEN Chemogenomic Library” (2024).

For assay [1], the target named is T1, Serine/threonine-protein kinase RIO1 (Homo sapiens) (UniProt Q9BRS2).
T1 sequence (whole entry): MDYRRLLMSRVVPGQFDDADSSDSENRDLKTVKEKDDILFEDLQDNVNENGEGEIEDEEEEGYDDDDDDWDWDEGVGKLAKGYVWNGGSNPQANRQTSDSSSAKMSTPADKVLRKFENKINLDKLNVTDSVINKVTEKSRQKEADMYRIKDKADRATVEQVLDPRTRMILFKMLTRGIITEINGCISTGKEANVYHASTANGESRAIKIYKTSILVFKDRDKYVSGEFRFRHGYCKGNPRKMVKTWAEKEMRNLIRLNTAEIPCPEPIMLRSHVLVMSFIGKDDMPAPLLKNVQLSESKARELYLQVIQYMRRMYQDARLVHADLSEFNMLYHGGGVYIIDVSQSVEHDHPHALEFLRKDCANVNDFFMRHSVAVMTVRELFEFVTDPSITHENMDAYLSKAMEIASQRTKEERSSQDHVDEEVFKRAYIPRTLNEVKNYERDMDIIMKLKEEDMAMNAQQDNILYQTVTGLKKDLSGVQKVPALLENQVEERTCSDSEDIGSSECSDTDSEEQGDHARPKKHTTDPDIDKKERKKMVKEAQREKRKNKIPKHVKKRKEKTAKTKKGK
The assay can be described thus: Selectivity interaction (Kinase panel (DSF assay)) EUB0001558a RIOK1.

For assay [2], the target named is T2, Ephrin type-A receptor 6 (Homo sapiens) (UniProt Q9UF33).
T2 sequence (whole entry): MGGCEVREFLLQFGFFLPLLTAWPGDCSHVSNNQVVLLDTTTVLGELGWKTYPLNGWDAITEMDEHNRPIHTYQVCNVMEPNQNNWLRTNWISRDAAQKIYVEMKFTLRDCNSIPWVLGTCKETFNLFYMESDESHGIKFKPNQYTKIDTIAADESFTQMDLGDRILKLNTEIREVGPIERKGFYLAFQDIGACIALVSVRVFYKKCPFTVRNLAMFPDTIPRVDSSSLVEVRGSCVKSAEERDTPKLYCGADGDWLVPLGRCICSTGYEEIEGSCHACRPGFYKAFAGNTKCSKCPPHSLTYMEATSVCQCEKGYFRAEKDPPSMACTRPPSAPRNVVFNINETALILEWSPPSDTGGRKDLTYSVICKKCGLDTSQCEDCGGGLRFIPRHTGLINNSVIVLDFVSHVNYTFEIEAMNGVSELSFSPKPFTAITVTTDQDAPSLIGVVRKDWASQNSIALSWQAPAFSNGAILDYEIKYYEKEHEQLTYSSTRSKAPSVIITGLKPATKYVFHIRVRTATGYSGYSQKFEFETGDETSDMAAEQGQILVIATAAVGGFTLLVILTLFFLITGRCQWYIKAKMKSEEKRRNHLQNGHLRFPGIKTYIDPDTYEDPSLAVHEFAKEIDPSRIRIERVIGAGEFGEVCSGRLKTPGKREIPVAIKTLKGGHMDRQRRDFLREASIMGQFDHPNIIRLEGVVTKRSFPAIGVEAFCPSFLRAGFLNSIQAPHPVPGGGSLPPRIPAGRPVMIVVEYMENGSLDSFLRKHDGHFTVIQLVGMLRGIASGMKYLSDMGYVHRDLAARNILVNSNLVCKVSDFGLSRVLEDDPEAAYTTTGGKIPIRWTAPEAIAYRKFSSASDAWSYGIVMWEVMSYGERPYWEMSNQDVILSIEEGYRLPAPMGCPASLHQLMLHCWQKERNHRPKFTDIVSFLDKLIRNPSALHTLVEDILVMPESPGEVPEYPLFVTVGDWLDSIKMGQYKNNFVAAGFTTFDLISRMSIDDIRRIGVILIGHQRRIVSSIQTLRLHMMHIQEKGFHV
As to conditions: at 10 µM.

In assay [3] the target is T3, Dual specificity mitogen-activated protein kinase kinase 6 (Homo sapiens) (UniProt P52564).
T3 sequence (whole entry): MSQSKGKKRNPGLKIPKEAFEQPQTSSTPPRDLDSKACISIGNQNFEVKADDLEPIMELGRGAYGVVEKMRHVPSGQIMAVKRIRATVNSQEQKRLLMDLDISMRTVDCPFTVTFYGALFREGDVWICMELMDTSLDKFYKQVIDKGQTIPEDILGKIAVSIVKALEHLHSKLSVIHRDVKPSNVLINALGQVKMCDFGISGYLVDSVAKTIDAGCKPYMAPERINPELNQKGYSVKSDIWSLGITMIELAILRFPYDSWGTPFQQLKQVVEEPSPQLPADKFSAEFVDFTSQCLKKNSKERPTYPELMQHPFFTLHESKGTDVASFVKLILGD
Briefly: Selectivity interaction (KinomeScan (DiscoverX)) EUB0001049a MAP2K6. The note with it: at 1 µM.

In assay [4] the target is Insulin receptor (Homo sapiens, UniProt P06213). Briefly: Selectivity interaction (ProQinase) EUB0000171b INSR.
The target of assay [5] is T4, Rhodopsin kinase GRK7 (Homo sapiens) (UniProt Q8WTQ7).
T4 sequence (whole entry): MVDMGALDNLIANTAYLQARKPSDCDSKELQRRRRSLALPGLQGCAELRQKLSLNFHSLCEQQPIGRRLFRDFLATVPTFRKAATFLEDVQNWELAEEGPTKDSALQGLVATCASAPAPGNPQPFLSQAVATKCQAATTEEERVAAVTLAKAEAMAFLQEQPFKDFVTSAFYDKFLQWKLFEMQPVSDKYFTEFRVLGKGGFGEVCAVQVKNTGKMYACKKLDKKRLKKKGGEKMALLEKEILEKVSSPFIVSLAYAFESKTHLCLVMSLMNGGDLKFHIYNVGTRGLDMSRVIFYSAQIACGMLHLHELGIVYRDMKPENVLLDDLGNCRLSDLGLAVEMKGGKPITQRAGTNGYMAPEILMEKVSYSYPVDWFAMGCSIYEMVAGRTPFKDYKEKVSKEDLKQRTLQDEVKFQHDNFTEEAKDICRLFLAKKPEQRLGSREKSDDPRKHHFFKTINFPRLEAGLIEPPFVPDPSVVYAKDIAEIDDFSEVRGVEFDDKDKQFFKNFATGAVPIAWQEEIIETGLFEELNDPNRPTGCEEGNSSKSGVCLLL
Briefly: Selectivity interaction (KinomeScan (DiscoverX)) EUB0000045b GRK7.

Sequence of Insulin receptor (P06213 28-758 limits assumed): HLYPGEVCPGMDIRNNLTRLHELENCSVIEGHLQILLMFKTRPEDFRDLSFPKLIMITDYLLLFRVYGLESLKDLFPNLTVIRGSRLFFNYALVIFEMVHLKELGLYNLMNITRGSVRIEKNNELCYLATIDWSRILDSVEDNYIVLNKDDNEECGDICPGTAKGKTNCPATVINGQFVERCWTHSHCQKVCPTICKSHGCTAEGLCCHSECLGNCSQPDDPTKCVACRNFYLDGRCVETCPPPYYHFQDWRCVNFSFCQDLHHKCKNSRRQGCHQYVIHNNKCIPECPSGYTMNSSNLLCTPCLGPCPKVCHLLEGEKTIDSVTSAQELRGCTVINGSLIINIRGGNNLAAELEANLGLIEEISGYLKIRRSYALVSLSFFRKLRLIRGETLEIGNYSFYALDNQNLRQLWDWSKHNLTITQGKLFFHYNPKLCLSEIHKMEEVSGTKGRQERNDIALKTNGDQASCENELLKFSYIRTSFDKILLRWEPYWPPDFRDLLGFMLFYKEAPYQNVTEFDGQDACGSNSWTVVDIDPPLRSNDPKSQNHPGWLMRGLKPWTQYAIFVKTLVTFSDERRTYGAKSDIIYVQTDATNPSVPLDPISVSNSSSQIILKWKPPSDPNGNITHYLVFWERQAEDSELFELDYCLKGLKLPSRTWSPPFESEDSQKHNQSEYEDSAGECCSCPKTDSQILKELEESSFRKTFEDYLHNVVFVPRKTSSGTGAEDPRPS
Sequence of Insulin receptor (P06213 763-1382 limits assumed): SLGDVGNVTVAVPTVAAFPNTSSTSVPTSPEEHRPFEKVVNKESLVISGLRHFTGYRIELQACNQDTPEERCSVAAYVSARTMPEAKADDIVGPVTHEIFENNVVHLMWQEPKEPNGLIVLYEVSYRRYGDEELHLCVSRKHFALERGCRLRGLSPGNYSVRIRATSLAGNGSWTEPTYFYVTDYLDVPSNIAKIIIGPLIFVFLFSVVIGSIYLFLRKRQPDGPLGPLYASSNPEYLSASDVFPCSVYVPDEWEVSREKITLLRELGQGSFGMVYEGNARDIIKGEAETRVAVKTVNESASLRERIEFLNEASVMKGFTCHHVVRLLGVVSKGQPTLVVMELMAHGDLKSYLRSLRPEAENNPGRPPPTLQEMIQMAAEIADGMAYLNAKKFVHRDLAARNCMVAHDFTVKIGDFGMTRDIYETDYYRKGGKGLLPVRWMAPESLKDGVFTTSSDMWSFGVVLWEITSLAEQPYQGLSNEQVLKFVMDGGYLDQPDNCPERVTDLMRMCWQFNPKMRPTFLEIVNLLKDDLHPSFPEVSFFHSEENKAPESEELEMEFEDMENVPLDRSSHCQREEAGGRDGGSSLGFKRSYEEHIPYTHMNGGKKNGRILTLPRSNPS

On to `CC(C)(O)[C@H](F)CN1Cc2cc(NC(=O)c3cnn4cccnc34)c(N3CCOCC3)cc2C1=O`, for which the dTM in assay [1] was -0.3 K.
In the case of `CCN(CC)CCCCNc1ncc2cc(-c3cc(OC)cc(OC)c3)c(NC(=O)NC(C)(C)C)nc2n1`, the % of control in assay [2] amounted to 100%.
With `COc1cc(Nc2nc(C)cc(-c3cnn4nc(OC)ccc34)n2)cc(C(F)(F)F)c1`, the % of control in assay [3] amounted to 100%.
Turning to `C=CC(=O)Nc1cccc(C(=O)Nc2ccc(Nc3cc(-c4[nH]c(SC)nc4C)ccn3)cc2)c1`, the figures for the % of control in assay [4] (at 1 µM) and in assay [4] (at 5 µM) were 91% and 83%, respectively.
As to `C=CC(=O)Nc1cc(-n2c(=O)ccc3cnc4ccc(-c5ccc(NS(C)(=O)=O)cc5)cc4c32)ccc1C`, the % of control in assay [5] (at 1 µM) came out at 75%; in assay [5] (at 10 µM), 84%.
